Measurements reported in patent US20050143354A1, “Association of an antithrombotic and aspirin” (priority 2002, published 2005).

Tested on: arterial thrombosis in the guinea-pig
Assay: arterial thrombosis test in the guinea-pig (cyclic flow reductions after carotid artery lesion)
Type: in vivo
Settings: aspirin 2 mg/kg i.v. alone; not different from control animals
Description: This test is based on the model initially described by Roux et al. (Thromb Haemost 71: 252-256, 1994). The guinea-pigs are anaesthetised using ketamine+xylazine (90+12) mg.kg i.m.. The trachea is cannulated and spontaneous respiration by the animals maintained. The jugular vein is cannulated, allowing the intravenous administration of the compounds being tested. The carotid artery is isolated, and a Doppler probe is installed allowing the arterial blood flow to be measured. After stabilisation, a lesion to the artery wall is produced by means of a clip applied distally to the Doppler probe. Subsequent to that lesion, the blood flow decreases. When the flow reaches zero, the artery is lightly shaken, which allows the flow to be restored. The thrombosis process continues, leading again to the flow reducing and ceasing. The thrombotic phenomena accordingly result in cyclic flow reductions (CFR), which are observed over a period of 20 minutes. After that period, the animal is treated, or not, with compound (A), and the CFR are again observed for a period of 20 minutes. The experiments are carried out in control animals or in animals treated by the intravenous route with aspirin (2 mg/kg).
This study was carried out using the sodium salt of the (R) isomer of compound (A).

CC(=O)Oc1ccccc1C(=O)O [aspirin]
cyclic flow reductions (CFR): 8±1 CFR/20 min
